Results taken from patent US5523314A, “Compounds useful as hypoglycemic agents and for treating Alzheimer's disease” (priority 1994, dated 1996).
Where two headings read alike, the source gives them in different places.

How the values were obtained:
blood glucose level [1] = test: Hypoglycemic activity in obese diabetic Zucker rats (Table 3); format: in vivo, obese diabetic Zucker rat (Zucker Diabetic Fatty Rat); settings: oral
Protocol: Male Sprague Dawley rats (Charles River Laboratories) weighing 175-200 g were used in this test system. […] The desired dose level of each test formulation was administered to four rats by oral […] at the beginning of the experiment. Blood glucose levels were determined immediately before the first dose and at 3 and 5 hours thereafter by an enzymatic procedure employing glucose oxidase and peroxidase coupled with a chromogenic oxygen acceptor. A mean was taken of the 4 values obtained before the first dose and at the 3 and 5 hour intervals.
The procedure used in this test system is the same as that described for the normal fed rat test system, above. The format of Table 3 is the same as that used in Table 2.

blood glucose level [2] = test: Hypoglycemic activity in obese diabetic mice (Table 1); format: in vivo, male viable yellow obese-diabetic mice; settings: for response vs control in vivo at 10 mg/kg / response vs control in vivo at 25 mg/kg / response vs control in vivo at 50 mg/kg: Mus musculus, ip, intraperitoneal; for ability to lower blood glucose levels in mammals: compared to structurally similar compounds known in the art, in words
Outline: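 Male viable yellow obese-diabetic mice, six per group, dosed intraperitoneally once with compound in saline containing 2% Emulphor. Blood glucose measured by glucose oxidase before dosing and at 2 and 4 h. Values are the 2 h and 4 h glucose as % of pre-dose level.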

Human liver cathepsin D = target: T1, Human liver cathepsin D (Homo sapiens, UniProt P07339); test: Cathepsin D inhibition, fluorometric assay (Tables 5 and 6); format: biochemical; settings: for inhibition at 4.15 µg/mL (stock): Compound Stock Concentration 4.15 μg/ml; for inhibition at 8.3 µg/mL (stock): Compound Stock Concentration 8.3 μg/ml
T1 construct: purchased Athens Research and Technology, Athens, Ga; host or cells: human liver
T1 sequence (P07339 169-412 limits assumed): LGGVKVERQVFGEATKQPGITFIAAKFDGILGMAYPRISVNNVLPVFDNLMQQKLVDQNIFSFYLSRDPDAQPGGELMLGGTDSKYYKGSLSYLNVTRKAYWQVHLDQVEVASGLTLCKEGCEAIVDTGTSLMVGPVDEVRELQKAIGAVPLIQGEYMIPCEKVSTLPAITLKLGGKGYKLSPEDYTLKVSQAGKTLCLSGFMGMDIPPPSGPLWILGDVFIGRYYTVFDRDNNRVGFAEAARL
T1 sequence (P07339 65-161 limits assumed): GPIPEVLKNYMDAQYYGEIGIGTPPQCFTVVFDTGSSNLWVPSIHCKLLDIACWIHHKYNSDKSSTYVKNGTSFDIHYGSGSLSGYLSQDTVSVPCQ
Outline: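 Human liver cathepsin D at 500 ng/mL in 200 mM NaOAc pH 4.5, 150 mM NaCl, incubated 30 minutes at 37° C. Reaction stopped with microsomal leucine aminopeptidase (pH 8.0), which over two hours at 37° C releases AMC from cleavage products for fluorometric reading; aminopeptidase inhibition checked with Leu-pNA.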

blood glucose level [3] = test: Hypoglycemic activity in normal fed rats (Table 2); format: in vivo, male Sprague Dawley rats; settings: Rattus norvegicus, oral
Protocol: The procedure used in this test system is described below.
The desired dose level of each test formulation was administered to four rats by oral […] at the beginning of the experiment. Blood glucose levels were determined immediately before the first dose and at 3 and 5 hours thereafter by an enzymatic procedure employing glucose oxidase and peroxidase coupled with a chromogenic oxygen acceptor. A mean was taken of the 4 values obtained before the first dose and at the 3 and 5 hour intervals.

[4] = system: plasma glucose concentration; test: Long-term hypoglycemic activity, compound in diet, A^vy /a mice (Table 4); format: in vivo, viable yellow mouse; settings: 0.1% in diet, Male A^vy /a (Harlan)
Protocol: (§1) Finally, the long-term hypoglycemic activity of the compounds of the present invention was tested in yet another in vivo test system. This long-term test system entailed incorporating test compound into the test animal's diet at various concentrations (control animal's diet contained no test compound). Such diet was then fed to the test or control animals for either 14 or 21 days. Each test or control animal was then bled from the tail (200-400 μl sample of blood) at 0 (before diet started), 7, 14 and, if appropriate, 21 and 28 days after diet administration was started. Plasma samples were then obtained from each blood sample collected and the glucose concentration of such plasma samples was determined enzymatically.
(§2) Columns 4-8 provide the plasma glucose concentration at days 0, 7, 14 and, if appropriate, 21 and 28, respectively, for the animals tested. Glucose lowering was not associated with depressed diet consumption.

β-amyloid protein = β-amyloid protein production inhibition in 293 751 SWE and CHO 751 SWE cells, ELISA (Table 7); format: cell-based; settings: Compound Stock Concentration 10.0 μg/ml; normalized for cytotoxicity
Protocol: Two cell lines (human kidney cell line 293 and Chinese hamster ovary cell line CHO) were stably transfected with the gene for APP751 containing the double mutation Lys-651-Met-652 to Asn-651-Leu-652 (APP-751 numbering) commonly called the Swedish mutation using the method described in Citron et al., Nature 360:672-674 (1992). The transfected cell lines were designated as 293 751 SWE and CHO 751 SWE, and were plated in Corning 96 well plates at 2.5×10^4 or 1×10^4 cells per well respectively in Dulbecco's minimal essential media (DMEM) plus 10% fetal bovine serum. […] These compound stocks were prepared by dissolving a sufficient quantity of the particular compound to be tested in DMSO such that various concentrations were obtained. After this pretreatment period, the conditioned media was removed and replaced with fresh conditioned media and the cells were incubated for an additional two hours.
After treatment, plates were centrifuged in a Beckman GPR at 1200 rpm for five minutes at room temperature to pellet cellular debris from the conditioned media. From each well, 100 μL of conditioned media were transferred into an ELISA plate precoated with antibody 266 [Seubert et al., Nature, 359:325-327 (1992)] and stored at 4° C. overnight prior to the completion of the ELISA assay the next day.
Cytotoxic effects of the compounds were measured by a modification of the method of Hansen et al., J. Immun. Meth. 119:203-210 (1989). To the cells remaining in the tissue culture plate, was added 25 μL of a 3-(4,5-dimethylthiazol-2-yl)-2,5-diphenyltetrazolium bromide (MTT) stock solution (5 mg/mL) to a final concentration of 1 mg/mL. Cells were incubated at 37° C. for one hour, and cellular activity was stopped by the addition of an equal volume of MTT lysis buffer (20% w/v sodium dodecylsulfate in 50% DMF, pH 4.7). Complete extraction was achieved by overnight shaking at room temperature. The difference in the OD562nm and the OD650nm was measured in a Molecular Devices UVmax microplate reader as an indicator of the cellular viability.
The results of the β-amyloid protein ELISA were fit to a standard curve and expressed as ng/mL β-amyloid protein peptide. In order to normalize for cytotoxicity, these β-amyloid protein results were divided by the cytotoxicity results and expressed as a percentage of the results from a drug-free control.

[5] = system: plasma glucose concentration; test: Long-term hypoglycemic activity, compound in diet, ZDF rats (Table 4); format: in vivo, 8 week old male Zucker Diabetic Fatty rat
Protocol: as §1, §2

[6] = 2 h, 2 hrs, read-out: Percent of Initial Blood Glucose Level After 2 hrs.
[7] = 4 h, 4 hrs, read-out: Percent of Initial Blood Glucose Level After 4 hrs.
[8] = 3 hrs, read-out: Percent of Initial Blood Glucose Level After 3 hrs.
[9] = 5 hrs, read-out: Percent of Initial Blood Glucose Level After 5 hrs.
[10] = 0.1% in diet, day 0 (before diet started)

Compound	response vs control in vivo at 10 mg/kg (blood glucose level [2]; [6])	response vs control in vivo at 25 mg/kg (blood glucose level [2]; [6])	response vs control in vivo at 50 mg/kg (blood glucose level [2]; [6])	response vs control in vivo at 10 mg/kg (blood glucose level [2]; [7])	response vs control in vivo at 25 mg/kg (blood glucose level [2]; [7])	response vs control in vivo at 50 mg/kg (blood glucose level [2]; [7])	ability to lower blood glucose levels in mammals (blood glucose level [2])	IC50 (Human liver cathepsin D)	inhibition at 4.15 µg/mL (stock) (Human liver cathepsin D)	Plasma Glucose Concentration ([4]; day 0 (before diet started))	Plasma Glucose Concentration ([4]; day 7)	Plasma Glucose Concentration ([4]; day 14)	Plasma Glucose Concentration ([4]; day 21)	Plasma Glucose Concentration ([4]; day 28)	response vs control in vivo at 200 mg/kg (blood glucose level [3]; [8])	response vs control in vivo at 200 mg/kg (blood glucose level [3]; [9])	inhibition at 10 µg/mL (stock) (β-amyloid protein)	Plasma Glucose Concentration [5, 10]	Plasma Glucose Concentration ([5]; 0.1% in diet, day 7)	Plasma Glucose Concentration ([5]; 0.1% in diet, day 14)	also measured
CCCCOc1ccc(C=C2SC(=S)NC2=O)cc1OCC [Example 56, 5-[(3-ethoxy-4-butoxyphenyl)methylene]-2-thioxo-4-thiazolidinone]	94 ± 4%	81 ± 8%	78 ± 4%	97 ± 4%	75 ± 3%	72 ± 3%	surprising ability to lower blood glucose levels in mammals	12.3 µM	73%	–	–	–	–	–	–	–	–	–	–	–	Percent of Initial Blood Glucose Level After 3 hrs. (blood glucose level [1]; 50 mg/kg): 79%; Percent of Initial Blood Glucose Level After 5 hrs. (blood glucose level [1]; 50 mg/kg): 66%; ability to inhibit cathepsin D (Human liver cathepsin D; compared to structurally similar compounds known in the art, in words): surprising ability to inhibit cathepsin D levels; response vs control in vivo at 150 mg/kg (blood glucose level [3]; [8]): 79%; response vs control in vivo at 150 mg/kg (blood glucose level [3]; [9]): 65%
CCOc1ccc(C=C2SC(=S)NC2=O)cc1OCC [Example 38, 5-[(3,4-diethoxyphenyl)methylene]-2-thioxo-4-thiazolidinone]	72 ± 4%	69 ± 9%	–	71 ± 6%	65 ± 7%	–	–	–	–	340 mg/dL	351 mg/dL	328 mg/dL	303 mg/dL	331 mg/dL	90%	74%	–	–	–	–	–
CCCCCOc1c(OC)cc(C=C2SC(=S)NC2=O)cc1OC [Example 70, 5-[(3,5-dimethoxy-4-pentoxyphenyl)methylene]-2-thioxo-4-thiazolidinone]	–	–	–	–	–	–	–	5.4 µM	66%	–	–	–	–	–	–	–	38%	300 mg/dL	190 mg/dL	195 mg/dL	–
CC(C)(C)c1cc(C=C2SC(=S)NC2=O)cc(CSc2ccccc2)c1O [Example 71]	–	–	–	–	–	–	–	–	–	–	–	–	–	–	–	–	65%	311 mg/dL	237 mg/dL	232 mg/dL	IC50 (Human liver cathepsin D; 50% inhibition of cathepsin D): 2.1 µM; inhibition at 8.3 µg/mL (stock) (Human liver cathepsin D): 94%; inhibition at 10 µg/mL (stock) (Human liver cathepsin D; Compound Stock Concentration 10.0 μg/ml): 76%
CCCCCOc1ccc(C=C2SC(=S)NC2=O)cc1 [Example 47, 5-[(4-pentoxyphenyl)methylene]-2-thioxo-4-thiazolidinone]	–	–	99 ± 14%	–	–	76 ± 8%	surprising ability to lower blood glucose levels in mammals	5.2 µM	60.5%	–	–	–	–	–	82%	73%	–	–	–	–	Percent of Initial Blood Glucose Level After 3 hrs. (blood glucose level [1]; 167 mg/kg): 74%; Percent of Initial Blood Glucose Level After 5 hrs. (blood glucose level [1]; 167 mg/kg): 66%
CCCCCOc1ccc(C=C2SC(=S)NC2=O)cc1OC [Example 45, 5-[(3-methoxy-4-pentoxyphenyl)methylene]-2-thioxo-4-thiazolidinone]	–	93 ± 4%	76 ± 7%	–	87 ± 5%	57 ± 3%	surprising ability to lower blood glucose levels in mammals	–	49.5%	438 mg/dL	338 mg/dL	315 mg/dL	287 mg/dL	295 mg/dL	–	–	–	–	–	–	Percent of Initial Blood Glucose Level After 3 hrs. (blood glucose level [1]; 167 mg/kg): 30%; Percent of Initial Blood Glucose Level After 5 hrs. (blood glucose level [1]; 167 mg/kg): 20%; Plasma Glucose Concentration ([5]; 0.025% in diet, day 0 (before diet started)): 467 mg/dL; Plasma Glucose Concentration ([5]; 0.025% in diet, day 7): 451 mg/dL; Plasma Glucose Concentration ([5]; 0.025% in diet, day 14): 452 mg/dL; Plasma Glucose Concentration ([5]; 0.025% in diet, day 21): 517 mg/dL; Plasma Glucose Concentration ([5]; 0.1% in diet, day 21): 285 mg/dL; inhibition at 8.3 µg/mL (stock) (Human liver cathepsin D): 95%; response vs control in vivo at 167 mg/kg (blood glucose level [3]; [8]): 61%; response vs control in vivo at 167 mg/kg (blood glucose level [3]; [9]): 63%
